Assay results: ChEMBL document CHEMBL3885861, “Open TG-GATES”

Organism: Rattus norvegicus
Assay: Open TG-GATES - Regimen: Single
Assay type: toxicity, organism-based, Sprague-Dawley
Design: regimen Single, gender Male, age 6 weeks
Details: in vivo, po, 0 mg/kg, route gavage, dose level Control; for APTT / Bas / Eos / Fbg / Hb / Ht / Lym / MCH / MCHC / MCV / Mono / Neu / PT / Plat / RBC / Ret / WBC: tissue Blood; for KIDNEY_L / KIDNEY_R / KIDNEY_TOTAL: tissue Kidney; for LIVER: tissue Liver; for A/G / ALP / ALT / AST / BUN / CRE / Ca / Cl / DBIL / GLC / IP / K / LDH / Na / PL / RALB / TBIL / TC / TG / TP / gamma-GTP: tissue Plasma

SMILES: C[C@H]1O[C@H](O[C@H]2[C@H](O)[C@@H](O)[C@@H](O[C@H]3[C@H](O)[C@@H](O)C(O)O[C@@H]3CO)O[C@@H]2CO)[C@H](O)[C@@H](O)[C@@H]1N[C@H]1C=C(CO)[C@@H](O)[C@H](O)[C@H]1O (some centres not stated) [ACARBOSE]
- TERMINAL_BW (3 h): 196.9 g
- APTT (3 h): 16.9 s
- Bas (3 h): 0.2%
- Eos (3 h): 0.8%
- Fbg (3 h): 275 mg/dL
- Hb (3 h): 13.4 g/dL
- Ht (3 h): 41.3%
- Lym (3 h): 78.6%
- MCH (3 h): 20.8 pg
- MCHC (3 h): 32.6%
- MCV (3 h): 63.7 fL
- Mono (3 h): 2.6%
- Neu (3 h): 16.8%
- PT (3 h): 13.6 s
- Plat (3 h): 116.5 x10_4/uL
- RBC (3 h): 647.8 x10_4/ul
- Ret (3 h): 8.1%
- WBC (3 h): 97.1 x10_2/uL
- KIDNEY_L (3 h): 0.9 g
- KIDNEY_R (3 h): 0.9 g
- KIDNEY_TOTAL (3 h): 1.8 g
- LIVER (3 h): 8.8 g
- A/G (3 h): 0.9
- ALP (3 h): 1499.8 IU/L
- ALT (3 h): 36 IU/L
- AST (3 h): 72.6 IU/L
- BUN (3 h): 10.4 mg/dL
- CRE (3 h): 0.2 mg/dL
- Ca (3 h): 10.7 mg/dL
- Cl (3 h): 105.2 meq/L
- DBIL (3 h): 0.006 mg/dL
- GLC (3 h): 174.6 mg/dL
- IP (3 h): 9.5 mg/dL
- K (3 h): 4 meq/L
- LDH (3 h): 58.2 IU/L
- Na (3 h): 141.4 meq/L
- PL (3 h): 133 mg/dL
- RALB (3 h): 2.5 g/dL
- TBIL (3 h): 0.06 mg/dL
- TC (3 h): 73.6 mg/dL
- TG (3 h): 46.8 mg/dL
- TP (3 h): 5.2 g/dL
- gamma-GTP (3 h): 1 IU/L
- TERMINAL_BW (6 h): 197.1 g
- APTT (6 h): 17.2 s
- Bas (6 h): 0.2%
- Eos (6 h): 0.6%
- Fbg (6 h): 286 mg/dL
- Hb (6 h): 13.2 g/dL
- Ht (6 h): 40.8%
- Lym (6 h): 73.6%
- MCH (6 h): 21 pg
- MCHC (6 h): 32.3%
- MCV (6 h): 64.9 fL
- Mono (6 h): 2.6%
- Neu (6 h): 22.4%
- PT (6 h): 13.7 s
- Plat (6 h): 125.4 x10_4/uL
- RBC (6 h): 629.8 x10_4/ul
- Ret (6 h): 8.4%
- WBC (6 h): 74.2 x10_2/uL
- KIDNEY_L (6 h): 0.9 g
- KIDNEY_R (6 h): 0.9 g
- KIDNEY_TOTAL (6 h): 1.9 g
- LIVER (6 h): 8.2 g
- A/G (6 h): 0.9
- ALP (6 h): 1467.2 IU/L
- ALT (6 h): 35.2 IU/L
- AST (6 h): 72.2 IU/L
- BUN (6 h): 8.8 mg/dL
- CRE (6 h): 0.2 mg/dL
- Ca (6 h): 10.5 mg/dL
- Cl (6 h): 104.6 meq/L
- DBIL (6 h): 0.004 mg/dL
- GLC (6 h): 166 mg/dL
- IP (6 h): 10.4 mg/dL
- K (6 h): 3.7 meq/L
- LDH (6 h): 65 IU/L
- Na (6 h): 141.6 meq/L
- PL (6 h): 136.8 mg/dL
- RALB (6 h): 2.5 g/dL
- TBIL (6 h): 0.064 mg/dL
- TC (6 h): 73.4 mg/dL
- TG (6 h): 72.4 mg/dL
- TP (6 h): 5.2 g/dL
- gamma-GTP (6 h): 1.4 IU/L
- TERMINAL_BW (9 h): 198.4 g
- APTT (9 h): 18.3 s
- Bas (9 h): 0%
- Eos (9 h): 0.8%
- Fbg (9 h): 306.6 mg/dL
- Hb (9 h): 13.2 g/dL
- Ht (9 h): 40.7%
- Lym (9 h): 75.2%
- MCH (9 h): 20.9 pg
- MCHC (9 h): 32.3%
- MCV (9 h): 64.8 fL
- Mono (9 h): 1.8%
- Neu (9 h): 21%
- PT (9 h): 13.6 s
- Plat (9 h): 122.9 x10_4/uL
- RBC (9 h): 629.4 x10_4/ul
- Ret (9 h): 8.4%
- WBC (9 h): 90.2 x10_2/uL
- KIDNEY_L (9 h): 0.9 g
- KIDNEY_R (9 h): 0.9 g
- KIDNEY_TOTAL (9 h): 1.8 g
- LIVER (9 h): 8.1 g
- A/G (9 h): 0.9
- ALP (9 h): 1467.6 IU/L
- ALT (9 h): 35.2 IU/L
- AST (9 h): 69.4 IU/L
- BUN (9 h): 8.6 mg/dL
- CRE (9 h): 0.2 mg/dL
- Ca (9 h): 10.4 mg/dL
- Cl (9 h): 104.2 meq/L
- DBIL (9 h): 0.006 mg/dL
- GLC (9 h): 177.8 mg/dL
- IP (9 h): 10.2 mg/dL
- K (9 h): 3.9 meq/L
- LDH (9 h): 63.8 IU/L
- Na (9 h): 140.8 meq/L
- PL (9 h): 133.6 mg/dL
- RALB (9 h): 2.5 g/dL
- TBIL (9 h): 0.06 mg/dL
- TC (9 h): 73.6 mg/dL
- TG (9 h): 52.4 mg/dL
- TP (9 h): 5.2 g/dL
- gamma-GTP (9 h): 1.2 IU/L
- TERMINAL_BW (24 h): 211.4 g
- APTT (24 h): 19.4 s
- Bas (24 h): 0%
- Eos (24 h): 1%
- Fbg (24 h): 269.6 mg/dL
- Hb (24 h): 13.2 g/dL
- Ht (24 h): 40.1%
- Lym (24 h): 73.6%
- MCH (24 h): 20.7 pg
- MCHC (24 h): 32.8%
- MCV (24 h): 63 fL
- Mono (24 h): 3.2%
- Neu (24 h): 21.4%
- PT (24 h): 13.1 s
- Plat (24 h): 113.4 x10_4/uL
- RBC (24 h): 636.6 x10_4/ul
- Ret (24 h): 7.9%
- WBC (24 h): 81.7 x10_2/uL
- KIDNEY_L (24 h): 1 g
- KIDNEY_R (24 h): 0.9 g
- KIDNEY_TOTAL (24 h): 1.9 g
- LIVER (24 h): 9.8 g
- A/G (24 h): 0.9
- ALP (24 h): 1381.8 IU/L
- ALT (24 h): 42.2 IU/L
- AST (24 h): 71.6 IU/L
- BUN (24 h): 14.2 mg/dL
- CRE (24 h): 0.2 mg/dL
- Ca (24 h): 10.7 mg/dL
- Cl (24 h): 103.8 meq/L
- DBIL (24 h): 0.006 mg/dL
- GLC (24 h): 175.8 mg/dL
- IP (24 h): 8.3 mg/dL
- K (24 h): 3.9 meq/L
- LDH (24 h): 60.8 IU/L
- Na (24 h): 141.4 meq/L
- PL (24 h): 139.8 mg/dL
- RALB (24 h): 2.5 g/dL
- TBIL (24 h): 0.062 mg/dL
- TC (24 h): 78 mg/dL
- TG (24 h): 59.2 mg/dL
- TP (24 h): 5.3 g/dL
- gamma-GTP (24 h): 1 IU/L
